{"source": "patent US20170121295A1", "about": "“POLYCYCLIC LPA1 ANTAGONIST AND USES THEREOF” (AMIRA PHARMACEUTICALS, INC., priority 2010, published 2017)", "key": {"LPA5": {"molecular_target": "LPA5 (Homo sapiens, UniProt Q9H1C0)", "sequence (Q9H1C0 whole entry, species assumed)": "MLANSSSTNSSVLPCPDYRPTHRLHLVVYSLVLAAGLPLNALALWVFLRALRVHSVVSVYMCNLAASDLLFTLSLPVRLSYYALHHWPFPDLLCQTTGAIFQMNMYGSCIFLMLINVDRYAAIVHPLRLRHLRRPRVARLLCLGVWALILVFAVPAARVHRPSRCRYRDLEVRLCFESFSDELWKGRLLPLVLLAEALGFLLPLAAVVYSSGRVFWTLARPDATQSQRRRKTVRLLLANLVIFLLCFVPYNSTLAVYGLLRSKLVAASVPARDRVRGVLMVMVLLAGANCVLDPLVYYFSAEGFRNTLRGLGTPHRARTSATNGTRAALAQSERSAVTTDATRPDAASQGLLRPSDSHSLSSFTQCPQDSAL", "experiment": "LPA5 Calcium Flux Assay", "type": "cell-based", "settings": "read-out: Ca Flux IC50 LPA5"}, "Human LPA1": {"molecular_target": "T1, Human LPA1 (Homo sapiens, UniProt Q92633)", "T1 construct": "the full-length cDNA for human LPA1 was obtained by PCR of the reverse transcription reaction; expressed in transfected cells", "T1 sequence (Q92633 whole entry)": "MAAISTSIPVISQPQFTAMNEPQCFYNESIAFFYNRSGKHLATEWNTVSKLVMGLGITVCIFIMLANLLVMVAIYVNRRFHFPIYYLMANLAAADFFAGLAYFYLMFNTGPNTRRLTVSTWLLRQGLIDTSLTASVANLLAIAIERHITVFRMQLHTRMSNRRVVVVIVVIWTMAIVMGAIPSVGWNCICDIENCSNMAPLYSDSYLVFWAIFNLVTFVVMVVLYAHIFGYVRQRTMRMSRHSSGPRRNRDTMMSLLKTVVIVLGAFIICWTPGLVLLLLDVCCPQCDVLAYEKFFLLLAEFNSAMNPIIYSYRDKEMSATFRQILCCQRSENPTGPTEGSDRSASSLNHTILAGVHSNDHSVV", "experiment": "LPA1 Calcium Flux Assay", "type": "cell-based", "settings": "human LPA1 expressing CHO cells, 10 nM LPA; read-out: Ca Flux IC50 LPA1", "method": "A 1.1 kb cDNA encoding the human LPA1 receptor was cloned from human lung. Human lung RNA (Clontech Laboratories, Inc. USA) was reverse transcribed using the RETROscript kit (Ambion, Inc.) and the full-length cDNA for human LPA1 was obtained by PCR of the reverse transcription reaction. The nucleotide sequence of the cloned human LPA1 was determined by sequencing and confirmed to be identical to the published human LPA1 sequence (An et al. Biochem. Biophys. Res. Commun. 231:619 (1997). The cDNA was cloned into the pCDNA5/FRT expression plasmid and transfected in CHO cells using lipofectamine 2000 (Invitrogen Corp., USA). Clones stably expressing human LPA1 were selected using hygromycin and identified as cells that show Ca-influx in response to LPA.\n(§1) Human LPA1 or LPA3 expressing CHO cells are seeded at 20,000-45,000 cells per well in a 96-well poly-D-lysine coated plate one or two days before the assay. Prior to the assay, the cells are washed once with PBS and then cultured in serum-free media overnight. On the day of the assay, a calcium indicator dye (Calcium 4, Molecular Devices) in assay buffer (HBSS with Ca^2+ and Mg^2+ and containing 20 mM Hepes and 0.3% fatty-acid free human serum albumin) is added to each well and incubation continued for 1 hour at 37° C. 10 μl of test compound in 2.5% DMSO are added to the cells and incubation continued at room temperature for 30 minutes. Cells are the stimulated by the addition of 10 nM LPA and intracellular Ca^2+ measured using the Flexstation 3 (Molecular Devices). IC50s are determined using Graphpad prism analysis of drug titration curves."}, "Human LPA3": {"molecular_target": "T2, Human LPA3 (Homo sapiens, UniProt Q9UBY5)", "T2 construct": "The full-length cDNA fragment for human LPA3 was obtained by PCR from the vector", "T2 sequence (Q9UBY5 1-353)": "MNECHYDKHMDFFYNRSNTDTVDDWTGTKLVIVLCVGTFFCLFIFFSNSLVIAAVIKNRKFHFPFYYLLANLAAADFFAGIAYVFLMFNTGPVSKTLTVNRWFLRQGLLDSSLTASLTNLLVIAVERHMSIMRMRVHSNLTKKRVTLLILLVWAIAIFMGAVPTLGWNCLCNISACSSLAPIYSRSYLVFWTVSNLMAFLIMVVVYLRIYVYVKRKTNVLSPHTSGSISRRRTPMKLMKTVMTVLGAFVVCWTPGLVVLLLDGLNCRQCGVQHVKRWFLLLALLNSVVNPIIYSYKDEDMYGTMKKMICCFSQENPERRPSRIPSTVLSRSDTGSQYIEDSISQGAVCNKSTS", "experiment": "LPA3 Calcium Flux Assay", "type": "cell-based", "settings": "human LPA3 expressing CHO cells, 10 nM LPA; read-out: Ca Flux IC50 LPA3", "method": "A vector containing the human LPA3 receptor cDNA was obtained from the Missouri S&T cDNA Resource Center (www.cdna.org). The full-length cDNA fragment for human LPA3 was obtained by PCR from the vector. The nucleotide sequence of the cloned human LPA3 was determined by sequencing and confirmed to be identical to the published human LPA3 sequence (NCBI accession number NM_012152). The cDNA was cloned into the pCDNA5/FRT expression plasmid and transfected in CHO cells using lipofectamine 2000 (Invitrogen Corp., USA). Clones stably expressing human LPA3 were selected using hygromycin and identified as cells that show Ca-influx in response to LPA.\nas §1"}, "[1]": {"experiment": "Pharmacokinetics in Sprague-Dawley Rats", "type": "in vivo", "settings": "for mean dose adjusted exposure (AUC0-24/D) / Cmax / bioavailability / AUC(0-t): PO 1 mg/kg; for mean dose adjusted exposure (AUC0-24/D) / dose adjusted AUC value (AUC0-24/D) / Cmax / bioavailability: fasted; for Cmax / bioavailability / AUC(0-t): Sprague-Dawley, rat, plasma; for Cmax: read-out: maximal plasma concentration (Cmax); for bioavailability: read-out: apparent bioavailability; for AUC(0-t): fed, read-out: exposure (AUC0-24)", "method": "The pharmacokinetics of Compound 1 and Compound 2 was assessed in male and female Sprague-Dawley rats (225-300 g at 10 weeks).\nCompound 2 (1 mg/kg) was administered intravenously (IV) to fasted rats (n=3) as a solution in purified water via a bolus injection into the jugular vein (1 mg/mL; 1 mL/kg). Compound 1 (10 mg/kg) was administered orally (PO), to fasted (for at least 12 hours) or non-fasted rats (n=2 or 3) as a solution in 0.5% methylcellulose unless otherwise noted via an oral gavage to the stomach (3.33 mg/mL; 3 mL/kg). Non-fasted animals were fasted for at least 12 hours and then were given food ad libitum for 1 hour prior to dosing. Fasted animals were dosed 1, 10, 30, 100 or 300 mg/kg Compound 1 as a solution in 0.5% methylcellulose via an oral gavage to the stomach (0.69 mg/mL, 10 mg/mL, 33.3 mg/mL or 100 mg/mL) (n=2 or 3 per dose group). In a gastrointestinal study, rats were anesthetized and Compound 1 was administered directly to the duodenum, jcjunum or ilcum at 1 mg/kg in 0.5% methylcellulose.\nCapsules were also administered with Compound 2. Capsules were size 9 gelatin (Torpac, San Diego, Calif.).\nBlood samples (approximately 300 μL total blood) were taken from each rat via the jugular vein cannula at pre-dose, and an initial time of 5 or 15 min and then various time points up to 24 hours post-dose (10-11 samples per animal). Samples were collected on wet ice in tubes containing potassium EDTA. After each blood draw, the cannula was flushed with an equivalent volume of heparinized saline (0.1 mL at 40 units/mL). Plasma samples, prepared by centrifugation of whole blood, were stored frozen (−80° C.) prior to analysis."}, "[2]": {"experiment": "Thermodynamic aqueous solubility", "type": "physicochemical", "settings": "water, equilibrated at 25° C. for 24 hours", "method": "Aqueous solubility was determined by suspending sufficient compound in water to give a maximum final concentration of ≧10 mg·ml−1 of the parent free-form of the compound. The suspension was equilibrated at 25° C. for 24 hours then the pH was measured. The suspension was then filtered through a glass fiber C filter into a 96 well plate unless stated otherwise. The filtrate was then diluted by a factor of 101. Quantification was by HPLC with reference to a standard solution of approximately 0.25 mg·ml^−1 in DMSO. Different volumes of the standard, diluted and undiluted sample solutions were injected. The solubility was calculated using the peak areas determined by integration of the peak found at the same retention time as the principal peak in the standard injection.\nAnalysis was performed on an Agilent HP1100 series system equipped with a diode array detector and using ChemStation software vB.02.01-SR1."}}, "note": "Read-outs that look alike come from different tables or passages of the source."}
{"smiles": "Cc1noc(-c2ccc(-c3ccc(C4(C(=O)O)CC4)cc3)cc2)c1NC(=O)O[C@H](C)c1ccccc1", "note": "[Compound 1, 1-{4′-[3-methyl-4-((R)-1-phenyl-ethoxycarbonylamino)-isoxazol-5-yl]-biphenyl-4-yl}-cyclopropanecarboxylic acid]", "values": [{"measurement": "IC50", "setting": "LPA5", "value": "> 1000", "unit": "nM"}, {"measurement": "IC50", "setting": "Human LPA1", "value": "< 200", "unit": "nM"}, {"measurement": "IC50", "setting": "Human LPA3", "value": "> 1000", "unit": "nM"}, {"measurement": "mean dose adjusted exposure (AUC0-24/D)", "setting": "[1]; females", "value": 1.9, "unit": "µg·h/mL"}, {"measurement": "mean dose adjusted exposure (AUC0-24/D)", "setting": "[1]; males", "value": 2.1, "unit": "µg·h/mL"}, {"measurement": "exposure in fed vs. fasted animals", "setting": "[1]; PO 10 mg/kg", "value": "slightly lower exposure in fed animals vs. fasted"}, {"measurement": "dose adjusted AUC value (AUC0-24/D)", "setting": "[1]; PO 10 mg/kg, female rats", "value": 2.7, "unit": "µg·h/mL"}, {"measurement": "dose adjusted AUC value (AUC0-24/D)", "setting": "[1]; PO 10 mg/kg, male rats", "value": 2.4, "unit": "µg·h/mL"}, {"measurement": "dose proportionality of exposure", "setting": "[1]; PO 30, 100 and 300 mg/kg", "value": "greater than dose proportional"}, {"measurement": "dose proportionality of exposure", "setting": "[1]; PO doses of 1 and 10 mg/kg, suspension", "value": "dose proportional"}, {"measurement": "Cmax", "setting": "[1]; female rats", "value": 300, "unit": "ng/mL"}, {"measurement": "bioavailability", "setting": "[1]; female", "value": 58, "unit": "%"}, {"measurement": "Cmax", "setting": "[1]; male rats", "value": 400, "unit": "ng/mL"}, {"measurement": "bioavailability", "setting": "[1]; male", "value": 63, "unit": "%"}, {"measurement": "AUC(0-t)", "setting": "[1]; female rats", "value": 1400, "unit": "ng·h/mL"}, {"measurement": "AUC(0-t)", "setting": "[1]; male rats", "value": 1600, "unit": "ng·h/mL"}, {"measurement": "regional absorption", "setting": "[1]; administered directly to duodenum, jejunum or ileum at 1 mg/kg", "value": "good oral bioavailability along the entire gastrointestinal tract"}, {"measurement": "dose normalized exposure", "setting": "[1]; oral, 10 mg/kg", "value": 5.1, "unit": "µg·h/mL"}, {"measurement": "solubility at 24 h", "setting": "[2]; 25 °C, thermodynamic from solid, read-out: Solubility (mg/ml, free form equivalent)", "value": 0.028, "unit": "mg/mL"}, {"measurement": "Solubility (mg/ml, free form equivalent)", "setting": "[2]; listed as free acid", "value": 0.031, "unit": "mg/mL"}]}
